Source: patent US20260226222A1, “PROCESS FOR MANUFACTURING POLYURETHANE FOAM” (Galata Chemicals, LLC, priority 2023, published 2026)
Values joined by “and” are separate entries in the source; they are usually repeats but may differ in a detail not shown here. Equal values may be shown once. Read-outs that look alike come from different tables or passages of the source.

Key:
[1] = cited from earlier work
[2] = Catalytic Activity Test (Dielectric Polarization Analyzer SubCASE HT)
Method: Comparative catalytic activity of selected tin-containing catalysts was determined with the use of Dielectric Polarization Analyzer SubCASE HT (Format Messtechnik GmbH) that converts the dielectric conductivity signal to Pot Life and Cure Time (among others) of curing polymer systems. Pot Life was determined by the instrument as time between the mixing the reactants and beginning of the polymerization process at 10% reduction in dielectrical properties from the initial point. Cure Time is calculated as the time between the maximum cure rate point and the point at which the maximum rate is slowed down by 25%. The polyurethane test formulation used for screening catalytic activity of the selected tin-containing catalysts with the use of SubCASE HT is shown in Table 1.
The selected catalysts were tested at loadings of the same tin content. The following catalysts were tested for comparative catalytic activity: stannous di-2-ethylhexanoate, stannous dineodecanoate, stannous diricinoleate, dimethyltin dioleate and dimethyltin dineodecanoate. A catalyst was added to the polyol and mixed at 400 rpm until thoroughly dispersed. IPDI was then added to the polyol/catalyst mixture and mixed for 20 seconds at 400 rpm before introducing the mixture into the SubCASE HT instrument and starting the kinetics measurements. The instrument temperature was set to 30° C. Results of the comparative catalytic activity test for Pot Life and Cure Time of the selected tin-containing catalysts are in Table 2.

[3] = for Cream time / % Elongation / Density / Permeability / Resiliency / Tensile: catalyst 0.23 pphp
Method: In addition to the above Examples carried out in the screening polyurethane formulation, actual flexible polyurethane foam specimens were prepared and tested for their performance characteristics.
The flexible polyurethane foam formulation is in Table 4.
Testing results of the prepared foams are in Table 5.

[4] = reproductive toxicity / CMR status, current or as in Comments
[5] = same amount of tin (0.029 g), 30° C.

CC(=O)[O-].CC(=O)[O-].[CH3][Sn+2][CH3] [Dimethyltin diacetate]
CMR classification ([1]; current): reprotoxicants of category 2 | CMR classification [1, 4]: Reprotox. of Cat. 2

Dibutyltin dilaurate
CMR classification ([1]; current): reprotoxicants of category 1B | CMR Classification (mutagen) ([1]; mutagenicity): Mutagen of Cat. 2 | CMR classification [1, 4]: Reprotox. of Cat. 1B

Dimethyltin dineodecanoate
CMR classification ([1]; current): reprotoxicants of category 2 | CMR classification [1, 4]: Reprotox. of Cat. 2 | Cure Time [2, 5]: 695 s | Cure Time-Pot Life [2, 5]: 321 s | Pot Life [2, 5]: 374 s | Cure Time ([2]; same tin amount): 695 s | Pot Life ([2]; same tin amount): 374 s | Cream time [3]: 18 s | elongation ([3]; foam): 107% | increase of elongation compared to Example Control 1 and Example Control 2 ([3]; foam): about 31% | % Elongation ([3]; foam): 107% | Density ([3]; foam): 1.37 lbs/ft3 | Permeability ([3]; foam): 0.3 scfm | Resiliency ([3]; foam): 20% | Tensile ([3]; foam): 15 psi

Dimethyltin dioleate
CMR classification ([1]; current): reprotoxicants of category 2 | CMR classification [1, 4]: Reprotox. of Cat. 2 | Cure Time [2, 5]: 1135 s | Cure Time-Pot Life [2, 5]: 533 s | Pot Life [2, 5]: 602 s | Pot Life ([2]; same tin amount): 602 s

Dimethyltin diricinoleate
CMR classification ([1]; current): reprotoxicants of category 2 | CMR classification [1, 4]: Reprotox. of Cat. 2 | Cure Time [2, 5]: 928 s | Cure Time-Pot Life [2, 5]: 457 s | Pot Life [2, 5]: 471 s | Cure Time ([2]; same tin amount): 928 s | Pot Life ([2]; same tin amount): 471 s | Cream time [3]: 17 s | % Elongation ([3]; foam): 93% | Density ([3]; foam): 1.39 lbs/ft3 | Permeability ([3]; foam): 4.4 scfm | Resiliency ([3]; foam): 35% | Tensile ([3]; foam): 14 psi

Dioctyltin dilaurate
CMR classification ([1]; current): reprotoxicants of category 1B | CMR classification [1, 4]: Reprotox. of Cat. 1B

Stannous di(2-ethylhexanoate)
Cure Time [2, 5]: 420 s | Cure Time-Pot Life [2, 5]: 109 s | Pot Life [2, 5]: 311 s | Pot Life ([2]; same tin amount): 311 s | Cream time [3]: 17 s

Stannous dineodecanoate
CMR classification ([1]; current): non-CMR | CMR classification [1, 4]: Not CMR | Cure Time [2, 5]: 741 s | Cure Time-Pot Life [2, 5]: 337 s | Pot Life [2, 5]: 404 s | Cure Time ([2]; same tin amount): 741 s | Pot Life ([2]; same tin amount): 404 s and 471 s | Cream time [3]: 15 s | elongation ([3]; foam): 97% | % Elongation ([3]; foam): 97% | Density ([3]; foam): 1.32 lbs/ft3 | Permeability ([3]; foam): 0.6 scfm | Resiliency ([3]; foam): 28% | Tensile ([3]; foam): 14 psi

Stannous diricinoleate
CMR classification ([1]; current): non-CMR | CMR classification [1, 4]: Not CMR | Cure Time [2, 5]: 895 s | Cure Time-Pot Life [2, 5]: 335 s | Pot Life [2, 5]: 560 s | Cure Time ([2]; same tin amount): 895 s | Pot Life ([2]; same tin amount): 560 s
